For assay [1], the system named is LTB4 synthesis in human whole blood. The assay is described as follows: human whole blood (HWB) assay, inhibition of LTB4 production. It counts as cell-based. The following applies: heparinized human whole blood, calcimycin 20 μM stimulation, plasma LTB4. The gist of the method:
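Plasma LTB4, quantified by HTRF immunoassay, is the read-out after calcimycin challenge (20 μM final, 30 min, 37 °C) of heparinized whole blood that had been pretreated with compound for 15 min at 37 °C; values given as IC50.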

The target in a further assay is T1, human LTA4 hydrolase (Homo sapiens, UniProt P09960).
T1 sequence (P09960 1-611): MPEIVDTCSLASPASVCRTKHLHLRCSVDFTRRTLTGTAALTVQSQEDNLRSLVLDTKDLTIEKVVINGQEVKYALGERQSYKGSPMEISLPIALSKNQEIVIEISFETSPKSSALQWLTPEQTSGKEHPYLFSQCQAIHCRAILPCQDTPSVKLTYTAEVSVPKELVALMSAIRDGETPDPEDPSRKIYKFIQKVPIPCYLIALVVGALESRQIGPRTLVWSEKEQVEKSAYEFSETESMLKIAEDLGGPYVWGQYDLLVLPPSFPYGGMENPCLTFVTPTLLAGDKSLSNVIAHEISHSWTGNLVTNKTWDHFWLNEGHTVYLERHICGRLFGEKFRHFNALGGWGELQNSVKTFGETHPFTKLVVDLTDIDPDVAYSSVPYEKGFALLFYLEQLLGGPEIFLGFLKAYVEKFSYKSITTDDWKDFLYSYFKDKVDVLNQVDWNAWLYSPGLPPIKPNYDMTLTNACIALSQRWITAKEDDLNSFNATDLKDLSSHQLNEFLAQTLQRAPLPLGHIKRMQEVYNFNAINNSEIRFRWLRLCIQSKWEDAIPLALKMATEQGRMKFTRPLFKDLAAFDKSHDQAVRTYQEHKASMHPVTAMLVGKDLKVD
The assay is described as follows: LTA4H Enzyme assay (peptidase, Arg-AMC cleavage). The assay is classed as biochemical. The following applies: LTA4H enzyme 1 nM, Arg-AMC substrate 50 μM, room temperature 1 h, fluorescence 380/460 nm. The gist of the method: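 Human LTA4H (1 nM final) incubated with compound and Arg-AMC (50 μM final) in 50 mM Tris-HCl pH 7.5, 100 mM KCl, 0.5% BSA, 1 h at room temperature. Product read as AMC fluorescence (ex 380/em 460 nm); IC50 reported.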

Usually IC50 stands for the point on the concentration scale where inhibition reaches its midpoint. For the compound `COCC1CCN(Cc2nc3cc(Oc4ccc(-c5ccn[nH]5)cc4)ccc3[nH]2)C1` (stereo not shown) [Example 166, 2-(3-Methoxymethyl-pyrrolidin-1-ylmethyl)-5-[4-(2H-pyrazol-3-yl)-phenoxy]-1H-benzoimidazole], the 50% inhibitory concentration (IC50) was 120 nM in assay [1] and 0.21 nM against human LTA4 hydrolase.
In the case of `COC[C@H]1CCCN1Cc1nc2cc(Oc3ccc(-c4ccn[nH]4)cc3)ccc2[nH]1` [Example 167, 2-((R)-2-Methoxymethyl-pyrrolidin-1-ylmethyl)-5-[4-(2H-pyrazol-3-yl)-phenoxy]-1H-benzoimidazole], the IC50 came to 120 nM in assay [1] and 0.14 nM on human LTA4 hydrolase.
Regarding `COCC1CCCCN1Cc1nc2cc(Oc3ccc(-c4ccn[nH]4)cc3)ccc2[nH]1` (stereo not shown) [Example 168, 2-(2-Methoxymethyl-piperidin-1-ylmethyl)-5-[4-(2H-pyrazol-3-yl)-phenoxy]-1H-benzoimidazole], the values for the IC50 (in assay [1]; on human LTA4 hydrolase) were 120 nM and 0.13 nM, respectively.
For the compound `CN(C)C(=O)CC1CCN(CC2Cc3ccc(Oc4ccc(-c5ccn[nH]5)cc4)cc3O2)CC1` (stereo not shown) [Example 169, N,N-Dimethyl-2-(1-{6-[4-(2H-pyrazol-3-yl)-phenoxy]-2,3-dihydro-benzofuran-2-ylmethyl}-piperidin-4-yl)-acetamide], the 50% inhibitory concentration (IC50) is 120 nM in assay [1] and 0.25 nM at human LTA4 hydrolase.
As to `COCC(=O)NC1CCN(CC2Cc3ccc(Oc4ccc(-c5ccn[nH]5)cc4)cc3O2)CC1` (stereo not shown) [Example 170, 2-Methoxy-N-(1-{6-[4-(2H-pyrazol-3-yl)-phenoxy]-2,3-dihydro-benzofuran-2-ylmethyl}-piperidin-4-yl)-acetamide], the half-inhibitory concentration (IC50) in assay [1] came out at 120 nM; against human LTA4 hydrolase, 0.35 nM.
`C[C@H]1CCCCN1Cc1nc2cc(Oc3ccc(-c4ccn[nH]4)cc3)ccc2[nH]1` [Example 171, 2-((S)-2-Methyl-piperidin-1-ylmethyl)-5-[4-(2H-pyrazol-3-yl)-phenoxy]-1H-benzoimidazole]: the results for the IC50 (in assay [1]; on human LTA4 hydrolase) were 130 nM and 0.11 nM, respectively.
In the case of `COC1CCCN(Cc2nc3cc(Oc4ccc(-c5ccn[nH]5)cc4)ccc3[nH]2)C1` (stereo not shown) [Example 172, 2-(3-Methoxy-piperidin-1-ylmethyl)-5-[4-(2H-pyrazol-3-yl)-phenoxy]-1H-benzoimidazole], the IC50 in assay [1] came out at 130 nM; at human LTA4 hydrolase, 0.07 nM.
With `COC[C@@H]1CCCN1Cc1nc2cc(Oc3ccc(-c4ccn[nH]4)cc3)ccc2[nH]1` [Example 173, 2-((S)-2-Methoxymethyl-pyrrolidin-1-ylmethyl)-5-[4-(2H-pyrazol-3-yl)-phenoxy]-1H-benzoimidazole], the figures for the 50% inhibitory concentration (IC50) (in assay [1]; against human LTA4 hydrolase) were 130 nM and 0.16 nM, respectively.
`CC1(O)CN(Cc2ccc3cc(Oc4ccc(-c5ccn[nH]5)cn4)ccc3n2)C1` [Example 174, 3-Methyl-1-{6-[5-(2H-pyrazol-3-yl)-pyridin-2-yloxy]-quinolin-2-ylmethyl}-azetidin-3-ol]: the figures for the IC50 (in assay [1]; at human LTA4 hydrolase) were 140 nM and 0.65 nM, respectively.
Taken in the same sequence, the figures for `c1cc(-c2ccc(Oc3ccc4[nH]c(CN5CCCOCC5)nc4c3)cc2)[nH]n1` [Example 175, 2-[1,4]Oxazepan-4-ylmethyl-5-[4-(2H-pyrazol-3-yl)-phenoxy]-1H-benzoimidazole] were 140 nM and 0.17 nM.
For the compound `O=S1(=O)CCN(CCn2cc3cc(Oc4ccc(-c5ccn[nH]5)cc4)ccc3n2)CC1` [Example 176, 2-[2-(1,1-Dioxo-1-λ-6-thiomorpholin-4-yl)-ethyl]-5-[4-(2H-pyrazol-3-yl)-phenoxy]-2H-indazole], the 50% inhibitory concentration (IC50) in assay [1] came to 140 nM; at human LTA4 hydrolase, 0.32 nM.
With `c1cc(-c2ccc(Oc3ccc4nc(CN5C[C@@H]6C[C@H]5CO6)ccc4c3)nc2)[nH]n1` [Example 178, 2-[(1S,4S)-1-(2-Oxa-5-aza-bicyclo[2.2.1]hept-5-yl)methyl]-6-[5-(2H-pyrazol-3-yl)-pyridin-2-yloxy]-quinoline], the values for the IC50 (in assay [1]; on human LTA4 hydrolase) were 150 nM and 0.74 nM, respectively.
On the same counts, the results for `CN(Cc1nc2cc(Oc3ccc(-c4ccn[nH]4)cc3)ccc2[nH]1)C1CC1` [Example 179, Cyclopropyl-methyl-{5-[4-(2H-pyrazol-3-yl)-phenoxy]-1H-benzoimidazol-2-ylmethyl}-amine] are 150 nM and 0.2 nM.
In the case of `CC[C@@H](C)NCc1nc2cc(Oc3ccc(-c4ccn[nH]4)cc3)ccc2[nH]1` [Example 180, ((R)-sec-Butyl)-{5-[4-(2H-pyrazol-3-yl)-phenoxy]-1H-benzoimidazol-2-ylmethyl}-amine], the IC50 was found to be 150 nM in assay [1] and 0.13 nM at human LTA4 hydrolase.
Take `c1cc(-c2ccc(Oc3ccc4[nH]c(CNC5CCCOC5)nc4c3)cc2)[nH]n1` (stereo not shown) [Example 181, {5-[4-(2H-Pyrazol-3-yl)-phenoxy]-1H-benzoimidazol-2-ylmethyl}-(tetrahydro-pyran-3-yl)-amine]: the IC50 in assay [1] was determined as 150 nM; against human LTA4 hydrolase, 0.21 nM.
Take `CC1(C)COCCN1Cc1nc2cc(Oc3ccc(-c4ccn[nH]4)cc3)ccc2[nH]1` [Example 182, 2-(3,3-Dimethyl-moprholin-4-ylmethyl)-5-[4-(2H-pyrazol-3-yl)-phenoxy]-1H-benzoimidazole]: the IC50 is 150 nM in assay [1] and 0.062 nM on human LTA4 hydrolase.
`COCCN(Cc1nc2cc(Oc3ccc(-c4ccn[nH]4)cc3)ccc2[nH]1)C(C)C` [Example 183, Isopropyl-(2-methoxy-ethyl)-{5-[4-(2H-pyrazol-3-yl)-phenoxy]-1H-benzoimidazol-2-ylmethyl}-amine]: the results for the IC50 (in assay [1]; at human LTA4 hydrolase) were 150 nM and 0.17 nM, respectively.
On the same counts, the results for `CCCN(CCOC)Cc1nc2cc(Oc3ccc(-c4ccn[nH]4)cc3)ccc2[nH]1` [Example 184, (2-Methoxy-ethyl)-propyl-{5-[4-(2H-pyrazol-3-yl)-phenoxy]-1H-benzoimidazol-2-ylmethyl}-amine] are 150 nM and 0.2 nM.
`c1cc(-c2ccc(Oc3ccc4c(c3)OC(CNCC3CCOCC3)C4)cc2)[nH]n1` (stereo not shown) [Example 185, {6-[4-(2H-Pyrazol-3-yl)-phenoxy]-2,3-dihydro-benzofuran-2-ylmethyl}-(tetrahydro-pyran-4-ylmethyl)-amine]: the IC50 amounted to 150 nM in assay [1] and 0.45 nM against human LTA4 hydrolase.
For `COCCN(CCOC)Cc1nc2cc(Oc3ccc(-c4ccn[nH]4)cc3)ccc2[nH]1` [Example 186, Bis-(2-methoxy-ethyl)-{5-[4-(2H-pyrazol-3-yl)-phenoxy]-1H-benzoimidazol-2-ylmethyl}-amine], the IC50 worked out at 150 nM in assay [1] and 0.23 nM on human LTA4 hydrolase.
As for `O=C(C1CCN(CC2Cc3ccc(Oc4ccc(-c5ccn[nH]5)cc4)cc3O2)CC1)N1CCOCC1` (stereo not shown) [Example 187, Morpholin-4-yl-(1-{6-[4-(2H-pyrazol-3-yl)-phenoxy]-2,3-dihydro-benzofuran-2-ylmethyl}-piperidin-4-yl)-methanone], the concentration for half-maximal inhibition (IC50) in assay [1] worked out at 150 nM; against human LTA4 hydrolase, 0.31 nM.
Consider `c1cc(-c2ccc(Oc3ccc4[nH]c(CNC5CCCC5)nc4c3)cc2)[nH]n1` [Example 188, Cyclopentyl-{5-[4-(2H-pyrazol-3-yl)-phenoxy]-1H-benzoimidazol-2-ylmethyl}-amine], for which the concentration for half-maximal inhibition (IC50) in assay [1] turned out to be 160 nM; on human LTA4 hydrolase, 0.13 nM.
On the same counts, the results for `COC[C@H](C)NCc1nc2cc(Oc3ccc(-c4ccn[nH]4)cc3)ccc2[nH]1` [Example 189, ((S)-2-Methoxy-1-methyl-ethyl)-{5-[4-(2H-pyrazol-3-yl)-phenoxy]-1H-benzoimidazol-2-ylmethyl}-amine] are 160 nM and 0.23 nM.

(Values after patent US9403830B2, “Inhibitors of leukotriene production” (Boehringer Ingelheim International GmbH, priority 2012, dated 2016).)
